{"source": "PubChem BioAssay AID624130", "about": "(National Center for Advancing Translational Sciences (NCATS), 2012)", "tested_on": "aqueous kinetic solubility, pH 7.4 phosphate buffer, LC-UV/MS", "assay": "qHTS Assay to Find Inhibitors of T. brucei phosphofructokinase: Aqueous Kinetic Solubility", "settings": "active compounds read high"}
{"smiles": "O=C(Cc1ccc(Cl)c(Cl)c1)Nc1ccc(S(=O)(=O)Nc2ccon2)cc1", "values": [{"measurement": "solubility", "value": 150, "unit": "µM"}]}
